# Test results taken from publication PMC6941144 (ACS chemical biology, 2019).
# Tests used:
# HIV-1 protease 10Mut = HIV-1 protease 10Mut (Human immunodeficiency virus type 1 group M subtype B, UniProt P12497, A559V/G504E/I501V/I572V/K533I/L521F/L564V/M534I/Q495K/V520I/V570F); details: relative to 8Mut; ΔG = RTln[Ki]
# HIV-1 protease 9Mut-A71V = HIV-1 protease 9Mut-A71V (Human immunodeficiency virus type 1 group M subtype B, UniProt P12497, A559V/G504E/I501V/I572V/K533I/L521F/M534I/Q495K/V520I/V570F); details: relative to 8Mut; ΔG = RTln[Ki]
# [1] = system: HIV-1 protease 2Mut (V82F, I84V); experiment: Enzyme inhibition; assay type: biochemical; details: primary active site mutations (2 mutations); abstract
# HIV-1 protease 9Mut-L76V = HIV-1 protease 9Mut-L76V (Human immunodeficiency virus type 1 group M subtype B, UniProt P12497, G504E/I501V/I572V/K533I/L521F/L564V/M534I/Q495K/V520I/V570F); details: relative to 8Mut; ΔG = RTln[Ki]
# HIV-1 protease 11Mut = HIV-1 protease 11Mut (Human immunodeficiency virus type 1 group M subtype B, UniProt P12497, A559V/G504E/I501V/I542L/I572V/K533I/L521F/L564V/M534I/Q495K/V520I/V570F); details: 11Mut vs WT
compound,measurement,setting,value
"CC(C)CN(C[C@@H](O)[C@H](Cc1ccccc1)NC(=O)O[C@H]1CO[C@H]2OCC[C@H]21)S(=O)(=O)c1ccc(N)cc1 [DRV, Darunavir]",ΔΔG10Mut (change in free energy of inhibitor binding),HIV-1 protease 10Mut,1.45 ± 0.05 kcal/mol
same,ΔΔG9Mut-A71V (change in free energy of inhibitor binding),HIV-1 protease 9Mut-A71V,0.35 ± 0.07 kcal/mol
same,loss in potency,[1],~ 50 fold
same,ΔΔG9Mut-L76V (change in free energy of inhibitor binding),HIV-1 protease 9Mut-L76V,1.55 ± 0.10 kcal/mol
same,decrease in inhibition compared to WT,HIV-1 protease 11Mut,"152,000 fold"
